Broadly, the IC50 is the midpoint of a concentration-inhibition curve. By Kd is commonly meant the concentration at which binding is half-saturated. A higher Kd goes with weaker binding.

Experiment [1] relates to T-cell. In words: CD25 cell surface staining on T-cells stimulated with anti-CD3 antibody alone (Biological Example 2). It is filed as cell-based. To be noted: primary human total T-cells, baseline = anti-CD3/anti-CD28 stimulated cells without inhibitor, read-out: CD25 staining, Anti-CD3 stimulation, fold change over baseline; for fold induction at 1 µM: 1 μM compound; for fold induction at 8 µM: 8 μM compound.

Experiment [2] deals with T1, Cbl-b (Homo sapiens, UniProt Q13191). Put plainly: Cbl-b activity assay (Cbl-b inhibition assay), TR-FRET of Cbl-b interaction with UbcH5B-Ub. It is filed as biochemical. To be noted: assay buffer with 100 mM NaCl, 60 nM Src kinase; read-out: Cbl-b activity IC50. The method in brief:
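Compound-treated Cbl-b was incubated 1.5 h with Src kinase (60 nM final; 30 nM for asterisked values, which also used 50 mM instead of 100 mM NaCl), 1 mM ATP and 5 mM MgCl2. Binding to fluorescent Ub-loaded UbcH5B (C85K mutant) was then read by TR-FRET after 1 h more.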
(In general: In TR-FRET formats the signal depends on donor and acceptor labels being close together.)

Experiment [3] addresses T1, Cbl-b. Put plainly: Cbl-b inhibition assay (Cbl-b activity assay, FRET, Biological Example 1; 100 mM NaCl, 60 nM Src kinase). The format is biochemical. The settings on record: upper bound stated in text lists; read-out: IC50 values in the Cbl-b inhibition assay of Biological Example 1. The method in brief:
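N-terminally biotinylated Avi-tagged Cbl-b was mixed with Src kinase, UbcH5B covalently conjugated to Bodipy-fluorescein ubiquitin, and streptavidin-terbium. Src phosphorylation lets Cbl-b bind UbcH5B-Ub, giving terbium-fluorescein FRET; inhibition is read as loss of FRET signal.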

For experiment [4], the system named is T-cell. In words: IL-2 secretion from T-cells stimulated with anti-CD3 antibody alone (Biological Example 2). The format is cell-based. The settings on record: primary human total T-cells, read-out: IL-2 secretion, Anti-CD3 stimulation, fold change over baseline; for fold induction at 1 µM: 1 μM compound; for fold induction at 8 µM: 8 μM compound.
For experiment [5], the system named is T-cell. Put plainly: CD25 cell surface staining on T-cells co-stimulated with anti-CD3 and anti-CD28 antibody (Biological Example 2). It is filed as cell-based, human. The settings on record: Homo sapiens, T-cell, primary human total T-cells, baseline = anti-CD3/anti-CD28 stimulated cells without inhibitor, read-out: CD25 staining, Anti-CD3/Anti-CD28 stimulation, fold change over baseline; for fold induction at 0.3 µM: 0.3 μM compound; for fold induction at 1 µM: 1 μM compound; for fold induction at 4 µM: 4 μM compound. The method in brief:
(§1)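 Values are fold-change over baseline: readings (IL-2 release, CD25 staining) from inhibitor-treated T-cells divided against untreated cells […]. No detailed procedure stated.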

The target of a further experiment is Cbl-b (residues 36-427) (Homo sapiens, UniProt Q13191). In words: Cbl-b binding assay (SPR, Biacore T200). To be noted: 20° C., 1:1 binding model. The method in brief:
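NeutrAvidin capture chip, 20° C; 50 s injections at 50 μl/min, 90-180 s dissociation; 0.3 M NaCl regeneration. Asterisked column: 50 mM NaCl buffer and 30 nM Src kinase in place of 100 mM NaCl and 60 nM Src kinase. 1:1 fit.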
In general terms: Surface plasmon resonance follows binding to a sensor surface in real time, without labels.

For experiment [6], the system named is T-cell. Put plainly: IL-2 secretion from T-cells co-stimulated with anti-CD3 and anti-CD28 antibody (Biological Example 2). The settings on record: Homo sapiens, T-cell, primary human total T-cells, baseline = anti-CD3/anti-CD28 stimulated cells without inhibitor, read-out: IL-2 secretion, Anti-CD3/Anti-CD28 stimulation, fold change over baseline; for fold induction at 0.3 µM: 0.3 μM compound; for fold induction at 1 µM: 1 μM compound; for fold induction at 4 µM: 4 μM compound. The format is cell-based, human. The method in brief:
as §1

T1 sequence (Q13191 36-427): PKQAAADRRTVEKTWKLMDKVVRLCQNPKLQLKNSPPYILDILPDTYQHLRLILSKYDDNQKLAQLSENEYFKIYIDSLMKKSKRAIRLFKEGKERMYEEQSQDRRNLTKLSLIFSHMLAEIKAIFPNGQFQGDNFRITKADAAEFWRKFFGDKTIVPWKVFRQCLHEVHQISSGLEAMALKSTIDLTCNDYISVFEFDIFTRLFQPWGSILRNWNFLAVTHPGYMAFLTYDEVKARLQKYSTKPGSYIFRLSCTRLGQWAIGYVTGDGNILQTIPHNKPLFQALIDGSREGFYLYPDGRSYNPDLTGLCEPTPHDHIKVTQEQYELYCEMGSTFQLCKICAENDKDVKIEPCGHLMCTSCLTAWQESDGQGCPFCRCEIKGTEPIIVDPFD
Cbl-b (residues 36-427), sequence (Q13191 36-427): as above

As for `C[C@H](Cc1nncn1C)c1cccc(N2Cc3c(cc(C(C)(C)O)cc3C(F)(F)F)C2=O)c1` [Compound 374, (R)-6-(2-hydroxypropan-2-yl)-2-(3-(1-(4-methyl-4H-1,2,4-triazol-3-yl)propan-2-yl)phenyl)-4-(trifluoromethyl)isoindolin-1-one], the fold induction at 1 µM in the experiment with T-cell [1] lay within 0.801 to 1; with T-cell [4] it was 0.151 to 0.2; in the experiment on T-cell [5], 1.31 to 1.5; with T-cell [6], 5 to 7.5. The fold induction at 8 µM in the experiment on T-cell [1] was above 1; with T-cell [4] it was above 0.201. Moreover, the IC50 on Cbl-b [2] is below 100 nM; on Cbl-b [3] it was at most 100 nM. Further, the results for the fold induction at 0.3 µM in the experiment on T-cell [5] and in the experiment with T-cell [6] were 1.01 to 1.3 and 2.51 to 5, respectively. Moreover, the fold induction at 4 µM in the experiment with T-cell [5] is 1.31 to 1.5; in the experiment on T-cell [6], above 7.5. Moreover, the Kd on Cbl-b (residues 36-427) is 100 to 300 nM.
For `C[C@@H]1[C@@H](c2nncn2C)[C@H]1c1cccc(N2Cc3c(cccc3C(F)(F)F)C2=O)c1` [Compound 375, 2-[3-[(1 S,2S,3R)-2-methyl-3-(4-methyl-4H-1,2,4-triazol-3-yl)cyclopropyl]phenyl]-4-(trifluoromethyl)-2,3-dihydro-1H-isoindol-1-one], the fold induction at 1 µM in the experiment with T-cell [1] is above 1; with T-cell [4], above 0.201; with T-cell [5], 1.31 to 1.5; in the experiment on T-cell [6] it was 5 to 7.5. In addition, the fold induction at 8 µM with T-cell [1] was above 1; in the experiment with T-cell [4] it was above 0.201. The IC50 at Cbl-b [2] was below 100 nM; on Cbl-b [3], at most 100 nM. The fold induction at 0.3 µM is 1.01 to 1.3 in the experiment on T-cell [5] and 2.51 to 5 in the experiment with T-cell [6]. Moreover, the figures for the fold induction at 4 µM in the experiment with T-cell [5] and in the experiment with T-cell [6] were 1.31 to 1.5 and above 7.5, respectively. At Cbl-b (residues 36-427), the Kd was below 100 nM.
As to `Cc1c[nH]nc1-c1cc2c(c(C(F)(F)F)c1)CN(c1cccc([C@H](C)Cc3nncn3C)c1)C2=O` [Compound 377, 6-(4-methyl-1H-pyrazol-3-yl)-2-{3-[(2R)-1-(4-methyl-4H-1,2,4-triazol-3-yl)propan-2-yl]phenyl}-4-(trifluoromethyl)-2,3-dihydro-1H-isoindol-1-one], the fold induction at 1 µM with T-cell [1] was 0.601 to 0.8; in the experiment with T-cell [4] it was above 0.201; in the experiment on T-cell [5] it was 1.51 to 1.75; in the experiment on T-cell [6], 5 to 7.5. In addition, the fold induction at 8 µM was 0.801 to 1 in the experiment with T-cell [1] and above 0.201 in the experiment on T-cell [4]. The results for the 50% inhibitory concentration (IC50) at Cbl-b [2] and on Cbl-b [3] were below 100 nM and at most 100 nM, respectively. Besides, the fold induction at 0.3 µM was in the range of 1.31 to 1.5 in the experiment on T-cell [5] and 1.01 to 2.5 with T-cell [6]. The fold induction at 4 µM in the experiment on T-cell [5] was above 1.76; in the experiment with T-cell [6] it was above 7.5. In addition, the Kd at Cbl-b (residues 36-427) was below 100 nM.
Consider `Cc1n[nH]c(C)c1-c1cc2c(c(C(F)(F)F)c1)CN(c1cccc([C@H](C)Cc3nncn3C)c1)C2=O` [Compound 378, 6-(3,5-dimethyl-1H-pyrazol-4-yl)-2-{3-[(2R)-1-(4-methyl-4H-1,2,4-triazol-3-yl)propan-2-yl]phenyl}-4-(trifluoromethyl)-2,3-dihydro-1H-isoindol-1-one], for which the fold induction at 1 µM with T-cell [1] is above 1; in the experiment with T-cell [4] it was above 0.201; with T-cell [5] it was 1.51 to 1.75; in the experiment with T-cell [6], above 7.5. Also, the fold induction at 8 µM with T-cell [1] was above 1; in the experiment on T-cell [4] it was above 0.201. Also, the half-maximal inhibitory concentration (IC50) was below 100 nM on Cbl-b [2] and at most 100 nM on Cbl-b [3]. The fold induction at 0.3 µM lay in the range of 1.31 to 1.5 in the experiment on T-cell [5] and 2.51 to 5 in the experiment on T-cell [6]. Further, the fold induction at 4 µM in the experiment on T-cell [5] is above 1.76; in the experiment with T-cell [6], above 7.5. The dissociation constant Kd at Cbl-b (residues 36-427) was below 100 nM.
Turning to `C[C@H](Cc1nncn1C)c1cccc(N2Cc3c(cc(N[C@H]4CCNC4)cc3C(F)(F)F)C2=O)c1` [Compound 379, 2-(3-((R)-1-(4-methyl-4H-1,2,4-triazol-3-yl)propan-2-yl)phenyl)-6-(((S)-pyrrolidin-3-yl)amino)-4-(trifluoromethyl)isoindolin-1-one], the fold induction at 1 µM in the experiment with T-cell [1] was 0.801 to 1; in the experiment on T-cell [4], 0.101 to 0.15; with T-cell [5], 1.01 to 1.3; with T-cell [6], 2.51 to 5. Further, the fold induction at 8 µM was above 1 with T-cell [1] and 0.151 to 0.2 in the experiment with T-cell [4]. Moreover, the IC50 was below 100 nM on Cbl-b [2] and at most 100 nM on Cbl-b [3]. In addition, the fold induction at 0.3 µM in the experiment on T-cell [5] was in the range of 1.01 to 1.3; in the experiment with T-cell [6], 1.01 to 2.5. Further, the fold induction at 4 µM in the experiment with T-cell [5] was 1.01 to 1.3; in the experiment with T-cell [6], 2.51 to 5. At Cbl-b (residues 36-427), this molecule returned a Kd below 100 nM.
On to `C[C@H](Cc1nncn1C)c1cccc(N2Cc3c(cc(N(C)[C@H]4CCNC4)cc3C(F)(F)F)C2=O)c1` [Compound 380, 6-(methyl((S)-pyrrolidin-3-yl)amino)-2-(3-((R)-1-(4-methyl-4H-1,2,4-triazol-3-yl)propan-2-yl)phenyl)-4-(trifluoromethyl)isoindolin-1-one], for which the fold induction at 1 µM with T-cell [1] was in the range of 0.801 to 1; in the experiment with T-cell [4] it was 0.151 to 0.2; in the experiment on T-cell [5] it was 1.31 to 1.5; in the experiment with T-cell [6], 2.51 to 5. Further, the fold induction at 8 µM in the experiment with T-cell [1] was above 1; in the experiment with T-cell [4] it was above 0.201. Also, the IC50 at Cbl-b [2] was below 100 nM; at Cbl-b [3], at most 100 nM. The fold induction at 0.3 µM with T-cell [5] lay within 1.31 to 1.5; in the experiment on T-cell [6] it was 2.51 to 5. The fold induction at 4 µM in the experiment with T-cell [5] is 1.51 to 1.75; in the experiment with T-cell [6], above 7.5. Also, the Kd at Cbl-b (residues 36-427) is below 100 nM.
With `Cc1[nH]ncc1-c1cc2c(c(C(F)(F)F)c1)CN(c1cccc([C@H](C)Cc3nncn3C)c1)C2=O` [Compound 381, 6-(5-methyl-1H-pyrazol-4-yl)-2-{3-[(2R)-1-(4-methyl-4H-1,2,4-triazol-3-yl)propan-2-yl]phenyl}-4-(trifluoromethyl)-2,3-dihydro-1H-isoindol-1-one], the fold induction at 1 µM with T-cell [1] lay within 0.801 to 1; with T-cell [4], 0.151 to 0.2; in the experiment on T-cell [5], 1.51 to 1.75; in the experiment with T-cell [6], 5 to 7.5. Moreover, the figures for the fold induction at 8 µM with T-cell [1] and with T-cell [4] were above 1 and above 0.201, respectively. Moreover, the 50% inhibitory concentration (IC50) is below 100 nM on Cbl-b [2] and at most 100 nM at Cbl-b [3]. Moreover, the fold induction at 0.3 µM fell in the range of 1.31 to 1.5 in the experiment with T-cell [5] and 2.51 to 5 in the experiment with T-cell [6]. Moreover, the values for the fold induction at 4 µM with T-cell [5] and in the experiment with T-cell [6] were 1.51 to 1.75 and above 7.5, respectively. Also, the Kd at Cbl-b (residues 36-427) was below 100 nM.
In the case of `C[C@H](Cc1nncn1C)c1cccc(N2Cc3c(cc([C@H]4CCCNC4)cc3C(F)(F)F)C2=O)c1` [Compound 383, 2-(3-((R)-1-(4-methyl-4H-1,2,4-triazol-3-yl)propan-2-yl)phenyl)-6-((R)-piperidin-3-yl)-4-(trifluoromethyl)isoindolin-1-one], the fold induction at 1 µM with T-cell [1] is 0.801 to 1; in the experiment with T-cell [4], above 0.201; with T-cell [5] it was 1.51 to 1.75; in the experiment with T-cell [6] it was 5 to 7.5. Also, the fold induction at 8 µM in the experiment on T-cell [1] is above 1; in the experiment on T-cell [4] it was above 0.201. Besides, the half-inhibitory concentration (IC50) is below 100 nM on Cbl-b [2] and at most 100 nM at Cbl-b [3]. Further, the figures for the fold induction at 0.3 µM with T-cell [5] and with T-cell [6] were 1.31 to 1.5 and 2.51 to 5, respectively. The fold induction at 4 µM is 1.51 to 1.75 in the experiment with T-cell [5] and above 7.5 in the experiment with T-cell [6]. In addition, at Cbl-b (residues 36-427), the Kd fell in the range of 100 to 300 nM.

Values taken from US20220324835A1 (Nurix Therapeutics, Inc., priority 2018, published 2022).
